Data from patent publication US20260265249A1, “PHARMACEUTICALLY ACCEPTABLE SALT AND CRYSTAL FORM OF 1,4-DIHYDRO-1,6-NAPHTHYRIDINE AMIDE COMPOUND AND PREPARATION METHOD THEREFOR” (JIANGSU HENGRUI PHARMACEUTICALS CO., LTD., priority 2023, published 2026).
One block for each compound: values may come before it.

Key:
Assay type in all cases: physicochemical
[1] = DVS (dynamic vapor sorption) hygroscopicity test
Source text: According to the description of hygroscopicity characteristics and the definitions of hygroscopic weight gains in “General Rule 9103, Guidelines for Hygroscopicity” in the Chinese Pharmacopoeia, Volume IV, 2015 Edition, • deliquescent: sufficient water is absorbed to form a liquid; • extremely hygroscopic: the hygroscopic weight gain is not less than 15%; • hygroscopic: the hygroscopic weight gain is less than 15% but not less than 2%; • slightly hygroscopic: the hygroscopic weight gain is less than 2% but not less than 0.2%; • nonhygroscopic or practically nonhygroscopic: the hygroscopic weight gain is less than 0.2%.
TGA refers to thermogravimetric analysis: The analysis was performed using a METTLER TOLEDO TGA 2 thermogravimetric analyzer, with a temperature ramp rate of 10° C./min, specific temperature ranges shown in corresponding patterns (mostly 30-350° C.), and a nitrogen purge speed of 50 mL/min. DVS refers to dynamic vapor sorption: The analysis was performed using SMS DVS Advantage; at 25° C., the humidity was changed as follows: 50%-95%-0%-95%-50%, in steps of 10% (5% for the last step) (specific humidity ranges are shown in corresponding patterns, and those listed here were used in most cases); the criterion was dm/dt being not greater than 0.002%.

[2] = Influencing factor stability study (open containers; light, high temperature, high humidity; 30 days)
[3] = Long-term/accelerated stability study (sealed in aluminum foil bags, 25° C./60% RH and 40° C./75% RH)
[4] = accelerated experimental conditions, 70% RH
[5] = normal storage conditions, 25° C. and 60% RH
[6] = open container, 40° C., 1 month
[7] = open container, 40° C., 14 days
[8] = open container, 60° C., 1 month
[9] = open container, 60° C., 14 days
[10] = open container, 75% RH, 1 month
[11] = open container, 75% RH, 14 days
[12] = open container, 92.5% RH, 1 month
[13] = open container, 92.5% RH, 7 days
[14] = open container, 92.5% RH, 14 days
[15] = open container, light exposure (4500 Lux), 1 month
[16] = open container, light exposure (4500 Lux), 7 days
[17] = open container, light exposure (4500 Lux), 14 days
[18] = 25° C.-60% RH, sealed aluminum foil bag, 1 month
[19] = 25° C.-60% RH, sealed aluminum foil bag, 2 months
[20] = 25° C.-60% RH, sealed aluminum foil bag, 3 months
[21] = 25° C.-60% RH, sealed aluminum foil bag, 6 months
[22] = 40° C.-75% RH, sealed aluminum foil bag, 1 month
[23] = 40° C.-75% RH, sealed aluminum foil bag, 2 months
[24] = 40° C.-75% RH, sealed aluminum foil bag, 3 months
[25] = 40° C.-75% RH, sealed aluminum foil bag, 6 months

- hygroscopic weight gain [1, 4]: about 1.9%
- crystal form re-identified after the DVS test [1]: did not change
- hygroscopic weight gain ([1]; extreme conditions, 90% RH): about 3.1%
- hygroscopic weight gain [1, 5]: about 1.6%
- Crystal form ([2]; 0 days): Crystal form a of sulfate
- Purity ([2]; 0 days): 99.7%
- Crystal form [2, 6]: No change
- Purity [2, 6]: 98.5%
- Crystal form ([2]; open container, 40° C., 7 days): No change
- Purity ([2]; open container, 40° C., 7 days): 99.4%
- Crystal form [2, 7]: No change
- Purity [2, 7]: 98.8%
- Crystal form [2, 8]: No change
- Purity [2, 8]: 97.9%
- Crystal form ([2]; open container, 60° C., 7 days): No change
- Purity ([2]; open container, 60° C., 7 days): 99.2%
- Crystal form [2, 9]: No change
- Purity [2, 9]: 98.7%
- Crystal form [2, 10]: No change
- Purity [2, 10]: 99.7%
- Crystal form ([2]; open container, 75% RH, 7 days): No change
- Purity ([2]; open container, 75% RH, 7 days): 99.7%
- Crystal form [2, 11]: No change
- Purity [2, 11]: 99.6%
- Crystal form [2, 12]: No change
- Purity [2, 12]: 99.7%
- Crystal form [2, 13]: No change
- Purity [2, 13]: 99.6%
- Crystal form [2, 14]: No change
- Purity [2, 14]: 99.7%
- Crystal form [2, 15]: No change
- Purity [2, 15]: 98.1%
- Crystal form [2, 16]: No change
- Purity [2, 16]: 99.2%
- Crystal form [2, 17]: No change
- Purity [2, 17]: 98.9%
- Purity (%) ([3]; 0 days (initial)): 99.7%
- Crystal form [3, 18]: No change
- Purity (%) [3, 18]: 99.7%
- Crystal form [3, 19]: No change
- Purity (%) [3, 19]: 99.7%
- Crystal form [3, 20]: No change
- Purity (%) [3, 20]: 99.8%
- Crystal form [3, 21]: No change
- Purity (%) [3, 21]: 99.7%
- Crystal form [3, 22]: No change
- Purity (%) [3, 22]: 99.6%
- Crystal form [3, 23]: No change
- Purity (%) [3, 23]: 99.7%
- Crystal form [3, 24]: No change
- Purity (%) [3, 24]: 99.6%
- Crystal form [3, 25]: No change
- Purity (%) [3, 25]: 99.6%
- long-term/accelerated stability (conclusion) ([3]; storage under long-term accelerated conditions for 6 months): good physical and chemical stability
Structure (SMILES): O=S(=O)(O)O.[2H]C([2H])([2H])Oc1cc(C#N)ccc1[C@@H]1C(C(N)=O)=C(C)Nc2c(C)cnc(OCC)c21 [crystal form a of sulfate]

- hygroscopic weight gain [1, 4]: about 13.2%
- crystal form re-identified after the DVS test [1]: did not change
- hygroscopic weight gain ([1]; extreme conditions, 90% RH): about 13.8%
- hygroscopic weight gain [1, 5]: about 12.8%
- Crystal form [2, 8]: No change
- Purity [2, 8]: 98.2%
- Crystal form ([2]; open container, 60° C., 7 days): No change
- Purity ([2]; open container, 60° C., 7 days): 99.2%
- Crystal form [2, 9]: No change
- Purity [2, 9]: 99.0%
- Crystal form [2, 10]: No change
- Purity [2, 10]: 99.6%
- Crystal form ([2]; open container, 75% RH, 7 days): No change
- Purity ([2]; open container, 75% RH, 7 days): 99.7%
- Crystal form [2, 11]: No change
- Purity [2, 11]: 99.6%
- Crystal form [2, 12]: No change
- Crystal form [2, 13]: No change
- Purity [2, 13]: 99.7%
- Crystal form [2, 14]: No change
- Crystal form [2, 16]: No change
- Crystal form [2, 17]: No change
- Purity (%) ([3]; 0 days (initial)): 99.7%
- Crystal form [3, 18]: No change
- Purity (%) [3, 18]: 99.8%
- Crystal form [3, 19]: No change
- Purity (%) [3, 19]: 99.7%
- Crystal form [3, 20]: No change
- Purity (%) [3, 20]: 99.7%
- Crystal form [3, 21]: No change
- Purity (%) [3, 21]: 99.7%
- Crystal form [3, 22]: No change
- Purity (%) [3, 22]: 99.6%
- Crystal form [3, 23]: No change
- Purity (%) [3, 23]: 99.4%
- Crystal form [3, 24]: No change
- Purity (%) [3, 24]: 97.9%
- Crystal form [3, 25]: No change
- Purity (%) [3, 25]: 97.9%
- long-term/accelerated stability (conclusion) ([3]; under long-term conditions): stable
Structure (SMILES): Br.[2H]C([2H])([2H])Oc1cc(C#N)ccc1[C@@H]1C(C(N)=O)=C(C)Nc2c(C)cnc(OCC)c21 [crystal form I of hydrobromide]
